# Test results reported in ChEMBL document CHEMBL2203098 (J Med Chem, 2012).
# Active and inactive are the calls of the source. No cut-off for these calls is given here.
# Columns and labels:
# [1] = biological target: Acetylcholinesterase (Electrophorus electricus, UniProt O42275)
# Description: Inhibition of electric eel AChE by colorimetric Ellman assay
# [2] = biological target: Cholinesterase (Equus caballus, UniProt P81908)
# [3] = system: HT-22; experiment: Neuroprotective activity against glutamate induced oxidative stress in mouse hippocampal HT22 cells assessed as cell viability at 10 uM after 24 hrs by MTT assay; assay type: functional, cell-based
# [4] = system: HT-22; experiment: Neuroprotective activity against glutamate induced oxidative stress in mouse hippocampal HT22 cells assessed as cell viability at 50 uM after 24 hrs by MTT assay; assay type: functional, cell-based
# [5] = system: HT-22; experiment: Neurotoxicity in mouse hippocampal HT22 cells assessed as cell viability at 10 uM after 24 hrs by MTT assay; assay type: toxicity, cell-based; conditions: ht-22, 24 h
# [6] = system: HT-22; experiment: Neurotoxicity in mouse hippocampal HT22 cells assessed as cell viability at 1 uM after 24 hrs by MTT assay; assay type: toxicity, cell-based; conditions: ht-22, 24 h
# [7] = system: Rattus norvegicus; experiment: Hepatoprotective activity in Wistar rat assessed as decrease in tissue content of TBARS at 2 uM/100 gram of body weight, ip after 24 hrs; assay type: functional; design: scale not given: the % may be the effect or the level left
# [8] = Hepatotoxicity against human HSC cells assessed as reduction in cell number up to 200 uM after 24 hrs using crystal violet staining by photometry; assay type: toxicity, cell-based
# [9] = system: HT-22; experiment: Neuroprotective activity against glutamate induced oxidative stress in mouse hippocampal HT22 cells assessed as cell viability at 25 uM after 24 hrs by MTT assay; assay type: functional, cell-based
# [10] = Hepatotoxicity against human HSC cells assessed as reduction in cell number at 10 to 75 uM after 24 hrs by fluorescence microscopic analysis; assay type: toxicity, cell-based
# [11] = system: HT-22; experiment: Neurotoxicity in mouse hippocampal HT22 cells assessed as cell viability at 25 uM after 24 hrs by MTT assay; assay type: toxicity, cell-based; conditions: ht-22, 24 h
# [12] = Hepatotoxicity against human HSC cells assessed as mitochondrial swelling at 50 to 75 uM after 24 hrs by fluorescence microscopic analysis; assay type: toxicity, cell-based
# [13] = system: HT-22; experiment: Neuroprotective activity against glutamate induced oxidative stress in mouse hippocampal HT22 cells assessed as cell viability at 1 uM after 24 hrs by MTT assay; assay type: functional, cell-based
# [14] = system: Rattus norvegicus; experiment: Hepatoprotective against tacrine-induced toxicity in Wistar rat liver assessed as increase in ratio of reduced/oxidised glutathione at 6 uM/100 gram of body weight, ip after 24 hrs; assay type: functional, organism-based
# [15] = biological target: Acetylcholinesterase (Electrophorus electricus) (UniProt O42275); experiment: Inhibition of electric eel AChE at 100 uM by colorimetric Ellman assay
# [16] = system: Rattus norvegicus; experiment: Hepatoprotective activity against tacrine-induced toxicity in Wistar rat liver assessed as decrease in tissue content of TBARS at 2 uM/100 gram of body weight, ip after 24 hrs; assay type: functional; design: scale not given: the % may be the effect or the level left
# [17] = system: Rattus norvegicus; experiment: Hepatoprotective against tacrine-induced toxicity in Wistar rat liver assessed as increase in ratio of reduced/oxidised glutathione at 2 uM/100 gram of body weight, ip after 24 hrs; assay type: functional, organism-based
# [18] = biological target: Cholinesterase (Equus caballus) (UniProt P81908); experiment: Inhibition of […] at 100 uM by colorimetric Ellman assay
# Cholinesterase (Equus caballus), sequence (P81908 whole entry): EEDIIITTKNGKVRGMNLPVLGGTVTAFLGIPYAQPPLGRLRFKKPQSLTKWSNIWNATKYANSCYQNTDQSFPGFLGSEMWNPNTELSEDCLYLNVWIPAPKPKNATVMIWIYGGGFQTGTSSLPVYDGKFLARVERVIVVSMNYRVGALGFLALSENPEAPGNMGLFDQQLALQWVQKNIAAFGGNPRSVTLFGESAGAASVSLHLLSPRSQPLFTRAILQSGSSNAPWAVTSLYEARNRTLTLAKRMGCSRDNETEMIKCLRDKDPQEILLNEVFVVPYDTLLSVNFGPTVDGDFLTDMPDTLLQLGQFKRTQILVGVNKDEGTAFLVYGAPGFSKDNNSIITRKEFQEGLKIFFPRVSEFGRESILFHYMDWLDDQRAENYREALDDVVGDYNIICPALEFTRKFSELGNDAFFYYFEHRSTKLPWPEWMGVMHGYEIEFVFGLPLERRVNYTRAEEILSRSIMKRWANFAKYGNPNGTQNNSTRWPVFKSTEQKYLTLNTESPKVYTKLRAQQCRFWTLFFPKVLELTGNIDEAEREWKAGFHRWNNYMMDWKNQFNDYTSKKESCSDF
# Cholinesterase, sequence (P81908 whole entry): as above
# Acetylcholinesterase, sequence (O42275 whole entry): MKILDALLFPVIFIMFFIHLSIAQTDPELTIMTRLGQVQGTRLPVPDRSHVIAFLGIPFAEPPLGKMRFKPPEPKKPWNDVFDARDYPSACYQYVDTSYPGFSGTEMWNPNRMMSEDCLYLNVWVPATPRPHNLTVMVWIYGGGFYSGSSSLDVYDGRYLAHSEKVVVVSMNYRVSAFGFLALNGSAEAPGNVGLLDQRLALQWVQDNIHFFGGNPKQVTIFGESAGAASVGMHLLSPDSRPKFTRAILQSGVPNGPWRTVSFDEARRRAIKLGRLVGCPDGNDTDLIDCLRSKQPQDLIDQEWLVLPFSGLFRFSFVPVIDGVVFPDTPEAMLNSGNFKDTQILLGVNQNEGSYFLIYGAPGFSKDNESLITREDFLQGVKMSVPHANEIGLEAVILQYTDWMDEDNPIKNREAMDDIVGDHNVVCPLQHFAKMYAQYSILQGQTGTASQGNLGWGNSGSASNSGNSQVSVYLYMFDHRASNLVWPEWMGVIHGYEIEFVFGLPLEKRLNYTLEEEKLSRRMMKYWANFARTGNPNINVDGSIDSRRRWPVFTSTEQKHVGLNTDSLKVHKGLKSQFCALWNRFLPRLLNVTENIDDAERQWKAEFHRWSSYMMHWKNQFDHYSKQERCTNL
# Acetylcholinesterase (Electrophorus electricus), sequence (O42275 24-633 limits assumed): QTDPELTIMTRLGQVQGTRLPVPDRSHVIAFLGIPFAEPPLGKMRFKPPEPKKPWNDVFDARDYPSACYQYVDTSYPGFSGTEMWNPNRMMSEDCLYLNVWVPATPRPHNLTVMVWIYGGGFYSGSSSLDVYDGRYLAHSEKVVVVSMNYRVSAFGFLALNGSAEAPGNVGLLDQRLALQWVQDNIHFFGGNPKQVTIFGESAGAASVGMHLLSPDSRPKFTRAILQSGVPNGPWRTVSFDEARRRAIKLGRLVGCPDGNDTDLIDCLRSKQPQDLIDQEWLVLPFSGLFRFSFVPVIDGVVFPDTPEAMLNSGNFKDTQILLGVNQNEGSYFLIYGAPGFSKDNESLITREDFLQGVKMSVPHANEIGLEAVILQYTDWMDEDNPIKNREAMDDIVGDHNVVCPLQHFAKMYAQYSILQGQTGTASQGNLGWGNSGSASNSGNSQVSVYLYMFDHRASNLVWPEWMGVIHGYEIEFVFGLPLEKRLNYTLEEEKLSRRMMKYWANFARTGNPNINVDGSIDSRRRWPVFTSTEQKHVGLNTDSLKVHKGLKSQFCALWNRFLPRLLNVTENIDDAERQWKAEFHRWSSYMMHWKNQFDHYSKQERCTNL
Structure (SMILES),IC50 [1] [µM],IC50 [2] [µM],Activity [3],Activity [4],Activity [5],Activity [6],Activity [7] [%],Activity [8],Activity [9],Activity [10],Activity [11],Activity [12],Activity [13],Activity [14],inhibition [15] [%],Activity [16] [%],Activity [17],inhibition [18] [%]
NCCCCCCNc1c2c(nc3ccccc13)CCCC2,0.039,0.002,,,,,,,,,,,,,,,,
O=C(O)CCC(=O)NCCCCCCNc1c2c(nc3ccccc13)CCCC2,0.102,0.361,,,,,,,,,,,,,,,,
COc1cc([C@@H]2Oc3cc([C@H]4Oc5cc(O)cc(O)c5C(=O)[C@@H]4O)ccc3O[C@H]2COC(=O)CCC(=O)NCCCCCCNc2c3c(nc4ccccc24)CCCC3)ccc1O,0.0539,0.0497,Active,Active,Non-toxic,Non-toxic,25,Non-toxic,Active,Non-toxic,Non-toxic,Non-toxic,Active,,,,,
COc1cc(C2Oc3cc([C@H]4Oc5cc(O)cc(O)c5C(=O)[C@@H]4O)ccc3OC2CO)ccc1O (stereo partly specified) [SILIBININ],,,inactive,inactive,,,,,inactive,,,,inactive,Active,5.5,15,Active,3.1
